Experimental data from patent US8110528B2, “Active ingredient combinations with insecticidal properties” (Bayer Cropscience AG, priority 2006, dated 2012).

Assays:
[1] = tested on: Myzus persicae; experiment: Myzus persicae test (cabbage leaf dip); assay type: in vivo, green peach aphid (Myzus persicae); settings: cabbage leaves dipped
Source text: (§1) The expected activity for a given combination of two active compounds can be calculated according to S. R. Colby, Weeds 15 (1967), 20-22 as follows: • If • X is the kill rate, expressed in % of the untreated control, when active compound A is applied at an application rate of m g/ha or at a concentration of m ppm, • Y is the kill rate, expressed in % of the untreated control, when active compound B is applied at an application rate of n g/ha or at a concentration of n ppm and • E is the kill rate, expressed in % of the untreated control, when active compounds A and B are applied at application rates of m and n g/ha or at a concentration of m and n ppm, then
(§2) If the actual insecticidal kill rate is greater than calculated, the kill of the combination is superadditive, i.e. there is a synergistic effect. In this case, the actual observed kill rate has to be greater than the value for the expected kill rate (E) calculated from the formula given above.
• Solvent: 7 parts by weight of dimethylformamide • Emulsifier: 2 parts by weight of alkylaryl polyglycol ether […]
After the desired period of time, the kill in % is determined. […] The kill rates determined are entered into the Colby formula (see sheet 1).

[2] = tested on: Phaedon cochleariae; experiment: Phaedon cochleariae larvae test (cabbage leaf dip); assay type: in vivo, mustard beetle (Phaedon cochleariae) larvae; settings: cabbage leaves dipped
Source text: as §1, §2
• Solvent: 7 parts by weight of dimethylformamide • Emulsifier: 2 parts by weight of alkylaryl polyglycol ether
To produce a suitable preparation of active compound, 1 part by weight of active compound is mixed with the stated amounts of solvent and emulsifier, and the concentrate is diluted with emulsifier-containing water to the desired concentration.
Cabbage leaves (Brassica oleracea) are treated by being dipped into the preparation of active compound of the desired concentration and populated with larvae of the mustard beetle (Phaedon cochleariae) while the leaves are still moist.
After the desired period of time, the kill in % is determined. 100% means that all beetle larvae have been killed; 0% means that none of the beetle larvae have been killed. The kill rates determined are entered into the Colby formula (see sheet 1).

O=C1C=C(N(Cc2ccc(Cl)nc2)C2CC2)CO1 [compound (Ib)]
Kill in % after 6d ([1]; 0.8 ppm): 25%
Kill in % after 6d ([2]; 20 ppm): 11%

CN(Cc1ccc(Cl)nc1)C1=CC(=O)OC1 [compound (Ia)]
Kill in % after 4d ([2]; 20 ppm): 5%

CN/C(=N\[N+](=O)[O-])NCc1cnc(Cl)s1 [clothianidin]
Kill in % after 6d ([1]; 0.16 ppm): 35%
Kill in % after 4d ([2]; 4 ppm): 25%
Kill in % after 6d ([2]; 4 ppm): 21%
